Results taken from the supplement of paper PMC10307832.

Tests used:
Test in all cases: relative viability (nuclei count vs DMSO), 5 days (fraction); higher = more cells survive
NCI-H1792 = tested on: NCI-H1792
How it was run: (§1)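 Medians of duplicate plates are given as relative viability. That measure is the nuclei count in treated wells divided by the count in vehicle wells. Counts were taken on 4× images of lung cancer cell lines in 1536-well plates, 5 days after pin-tool dosing the day after seeding with one drug alone or a fixed anchor-drug dose plus five library-drug doses (not always all listed) in √10 steps.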

NCI-H1993 = tested on: NCI-H1993
How it was run: as §1

HCC-15 = tested on: HCC-15
How it was run: as §1

NCI-H838 = tested on: NCI-H838
How it was run: as §1

NCI-H358 = tested on: NCI-H358
How it was run: as §1

COR-L23 = tested on: COR-L23
How it was run: as §1

NCI-H647 = tested on: NCI-H647
How it was run: as §1

NCI-H1395 = tested on: NCI-H1395
How it was run: as §1

NCI-H1734 = tested on: NCI-H1734
How it was run: as §1

NCI-H2009 = tested on: NCI-H2009
How it was run: as §1

NCI-H1755 = tested on: NCI-H1755
How it was run: as §1

**Q.** How did the relative viability (NCI-H1792; first compound 0.08 µM) turn out when `O=c1cc(-c2cccc3c2Sc2ccccc2S3)oc(N2CCOCC2)c1` + Nc1nc2[nH]cc(CCc3ccc(C(=O)N[C@@H](CCC(=O)O)C(=O)O)cc3)c2c(=O)[nH]1 [Pemetrexed] (partner 0.2 µM) was run?
**A.** 0.75

**Q.** And the relative viability (NCI-H1792; first compound 0.253 µM)?
**A.** 1.54

**Q.** And the relative viability (NCI-H1792; first compound 0.8 µM)?
**A.** 0.775

**Q.** What about the relative viability (NCI-H1792; first compound 2.53 µM) of the same molecule?
**A.** 0.776

**Q.** What about the relative viability (NCI-H1792; first compound 8 µM) of the same molecule?
**A.** 0.729

**Q.** What about the relative viability (NCI-H1993; first compound 0.08 µM) of the same molecule?
**A.** 0.588

**Q.** What about the relative viability (NCI-H1993; first compound 0.253 µM) of the same molecule?
**A.** 0.702

**Q.** What about the relative viability (NCI-H1993; first compound 0.8 µM) of the same molecule?
**A.** 0.567

**Q.** What about the relative viability (NCI-H1993; first compound 2.53 µM) of the same molecule?
**A.** 0.497

**Q.** What about the relative viability (NCI-H1993; first compound 8 µM) of the same molecule?
**A.** 0.613

**Q.** What about the relative viability (HCC-15; first compound 0.08 µM) of the same molecule?
**A.** 0.23

**Q.** And the relative viability (HCC-15; first compound 0.253 µM)?
**A.** 0.253

**Q.** What about the relative viability (HCC-15; first compound 0.8 µM) of the same molecule?
**A.** 0.207

**Q.** And the relative viability (HCC-15; first compound 2.53 µM)?
**A.** 0.204

**Q.** What about the relative viability (HCC-15; first compound 8 µM) of the same molecule?
**A.** 0.228

**Q.** What about the relative viability (NCI-H838; first compound 0.08 µM) of the same molecule?
**A.** 0.266

**Q.** What about the relative viability (NCI-H838; first compound 0.253 µM) of the same molecule?
**A.** 0.245

**Q.** What about the relative viability (NCI-H838; first compound 0.8 µM) of the same molecule?
**A.** 0.249

**Q.** And the relative viability (NCI-H838; first compound 2.53 µM)?
**A.** 0.226

**Q.** And the relative viability (NCI-H838; first compound 8 µM)?
**A.** 0.226

**Q.** And the relative viability (NCI-H358; first compound 0.08 µM)?
**A.** 0.161

**Q.** What about the relative viability (NCI-H358; first compound 0.253 µM) of the same molecule?
**A.** 0.188

**Q.** What about the relative viability (NCI-H358; first compound 0.8 µM) of the same molecule?
**A.** 0.183

**Q.** What about the relative viability (NCI-H358; first compound 2.53 µM) of the same molecule?
**A.** 0.176

**Q.** And the relative viability (NCI-H358; first compound 8 µM)?
**A.** 0.175

**Q.** And the relative viability (COR-L23; first compound 0.08 µM)?
**A.** 0.194

**Q.** What about the relative viability (COR-L23; first compound 0.253 µM) of the same molecule?
**A.** 0.215

**Q.** What about the relative viability (COR-L23; first compound 0.8 µM) of the same molecule?
**A.** 0.215

**Q.** What about the relative viability (COR-L23; first compound 2.53 µM) of the same molecule?
**A.** 0.195

**Q.** What about the relative viability (COR-L23; first compound 8 µM) of the same molecule?
**A.** 0.197

**Q.** And the relative viability (NCI-H647; first compound 0.08 µM)?
**A.** 0.168

**Q.** What about the relative viability (NCI-H647; first compound 0.253 µM) of the same molecule?
**A.** 0.149

**Q.** And the relative viability (NCI-H647; first compound 0.8 µM)?
**A.** 0.17

**Q.** And the relative viability (NCI-H647; first compound 2.53 µM)?
**A.** 0.169

**Q.** And the relative viability (NCI-H647; first compound 8 µM)?
**A.** 0.159

**Q.** And the relative viability (NCI-H1395; first compound 0.08 µM)?
**A.** 0.842

**Q.** What about the relative viability (NCI-H1395; first compound 0.253 µM) of the same molecule?
**A.** 0.764

**Q.** And the relative viability (NCI-H1395; first compound 0.8 µM)?
**A.** 0.936

**Q.** What about the relative viability (NCI-H1395; first compound 2.53 µM) of the same molecule?
**A.** 0.765

**Q.** What about the relative viability (NCI-H1395; first compound 8 µM) of the same molecule?
**A.** 1.09

**Q.** And the relative viability (NCI-H1734; first compound 0.08 µM)?
**A.** 0.394

**Q.** What about the relative viability (NCI-H1734; first compound 0.253 µM) of the same molecule?
**A.** 0.45

**Q.** And the relative viability (NCI-H1734; first compound 0.8 µM)?
**A.** 0.487

**Q.** What about the relative viability (NCI-H1734; first compound 8 µM) of the same molecule?
**A.** 0.432

**Q.** What about the relative viability (NCI-H2009; first compound 0.08 µM) of the same molecule?
**A.** 1.08

**Q.** What about the relative viability (NCI-H2009; first compound 0.253 µM) of the same molecule?
**A.** 0.96

**Q.** What about the relative viability (NCI-H2009; first compound 0.8 µM) of the same molecule?
**A.** 0.983

**Q.** And the relative viability (NCI-H2009; first compound 2.53 µM)?
**A.** 0.966

**Q.** And the relative viability (NCI-H2009; first compound 8 µM)?
**A.** 0.957

**Q.** What about the relative viability (NCI-H1755; first compound 0.08 µM) of the same molecule?
**A.** 0.572

**Q.** And the relative viability (NCI-H1755; first compound 0.253 µM)?
**A.** 0.398

**Q.** What about the relative viability (NCI-H1755; first compound 0.8 µM) of the same molecule?
**A.** 0.389

**Q.** And the relative viability (NCI-H1755; first compound 2.53 µM)?
**A.** 0.574

**Q.** What about the relative viability (NCI-H1755; first compound 8 µM) of the same molecule?
**A.** 0.366
